Measured values taken from ChEMBL document CHEMBL4118101 (Bioorg Med Chem, 2018).
≈ marks a conversion by molar mass, not a printed value. Calls of active or inactive are those of the source. The rule behind the calls is not given here.

Legend:
[1] = test system: Cryptococcus neoformans; test: Antifungal activity against Cryptococcus neoformans isolate CN3 measured after 48 hrs by CLSI M27-A3 protocol based method; type: functional; details: Cryptococcus neoformans, isolate CN3, 48 h; read-out: MIC
[2] = test system: Candida albicans; test: Antifungal activity against Candida albicans ATCC 64124 measured after 48 hrs by CLSI M27-A3 protocol based method; type: functional; details: Candida albicans, ATCC 64124, 48 h; read-out: MIC
[3] = test system: Candida albicans; test: Induction of membrane permeabilization in Candida albicans ATCC 10231 assessed as membrane disruption at 4 times MIC after 1 hr by propidium iodide staining based fluorescence microscopy; type: functional, organism-based
[4] = test system: Candida albicans; test: Antifungal activity against fluconazole/ITC-resistant Candida albicans ATCC MYA-1237 measured after 48 hrs by CLSI M27-A3 protocol based method; type: functional; details: Candida albicans, ATCC MYA-1237, 48 h; read-out: MIC
[5] = test system: Cryptococcus neoformans; test: Antifungal activity against Cryptococcus neoformans isolate CN2 measured after 48 hrs by CLSI M27-A3 protocol based method; type: functional; details: Cryptococcus neoformans, isolate CN2, 48 h; read-out: MIC
[6] = test system: Candida parapsilosis; test: Antifungal activity against Candida parapsilosis isolate CP2 measured after 48 hrs by CLSI M27-A3 protocol based method; type: functional; details: Lodderomyces parapsilosis, isolate CP2, 48 h
[7] = test system: Candida albicans; test: Antifungal activity against fluconazole/ITC-resistant Candida albicans ATCC MYA-1003 measured after 48 hrs by CLSI M27-A3 protocol based method; type: functional; details: Candida albicans, ATCC MYA-1003, 48 h; read-out: MIC
[8] = test system: Candida albicans; test: Antifungal activity against fluconazole/ITC-susceptible Candida albicans ATCC MYA-2310 measured after 48 hrs by CLSI M27-A3 protocol based method; type: functional; details: Candida albicans, ATCC MYA-2310, 48 h; read-out: MIC
[9] = test system: HEK293; test: Cytotoxicity against HEK293 cells up to 31 ug/ml after 24 hrs by resazurin based assay; type: cell-based; details: human, hek293, 24 h
[10] = test system: Candida parapsilosis; test: Antifungal activity against Candida parapsilosis ATCC 22019 measured after 48 hrs by CLSI M27-A3 protocol based method; type: functional; details: Lodderomyces parapsilosis, ATCC 22019, 48 h
[11] = test system: Candida albicans; test: Antifungal activity against fluconazole/ITC-susceptible Candida albicans ATCC MYA-2876 measured after 48 hrs by CLSI M27-A3 protocol based method; type: functional; details: Candida albicans, ATCC MYA-2876, 48 h
[12] = Hemolytic activity in mouse RBC at 3.9 ug/ml after 1 hr relative to control; type: ADME, cell-based, Erythrocyte; details: mouse red blood cells (erythrocytes), read-out: Activity
[13] = test system: Aspergillus terreus; test: Antifungal activity against Aspergillus terreus ATCC MYA-3633 measured after 48 hrs by CLSI M38-A2 protocol based method; type: functional; details: ATCC MYA-3633, 48 h
[14] = test system: Candida albicans; test: Antifungal activity against fluconazole/ITC-resistant Candida albicans ATCC 90819 measured after 48 hrs by CLSI M27-A3 protocol based method; type: functional; details: Candida albicans, ATCC 90819, 48 h; read-out: MIC
[15] = test system: Candida albicans; test: Fungistatic activity against Candida albicans ATCC 10231 at 4 times MIC incubated for 24 hrs by time kill assay; type: functional, organism-based
[16] = test system: Nakaseomyces glabratus; test: Antifungal activity against Candida glabrata isolate CG2 measured after 48 hrs by CLSI M27-A3 protocol based method; type: functional; details: Nakaseomyces glabratus, isolate CG2, 48 h; read-out: MIC
[17] = test system: Candida albicans; test: Antifungal activity against Candida albicans ATCC 10231 measured after 48 hrs by CLSI M27-A3 protocol based method; type: functional; details: ATCC 10231, 48 h
[18] = test system: Nakaseomyces glabratus; test: Antifungal activity against Candida glabrata isolate CG3 measured after 48 hrs by CLSI M27-A3 protocol based method; type: functional; details: Nakaseomyces glabratus, 48 h; read-out: MIC
[19] = test system: Candida parapsilosis; test: Fungistatic activity against Candida parapsilosis ATCC 22019 up to 4 times MIC incubated for 24 hrs by time kill assay; type: functional, organism-based
[20] = test system: Cryptococcus neoformans; test: Antifungal activity against Cryptococcus neoformans isolate CN1 measured after 48 hrs by CLSI M27-A3 protocol based method; type: functional; details: isolate CN1, 48 h
[21] = test system: Candida parapsilosis; test: Antifungal activity against Candida parapsilosis isolate CP1 measured after 48 hrs by CLSI M27-A3 protocol based method; type: functional; details: Lodderomyces parapsilosis, isolate CP1, 48 h
[22] = Hemolytic activity in mouse RBC at 1.95 ug/ml after 1 hr relative to control; type: ADME, cell-based, Erythrocyte; details: mouse red blood cells (erythrocytes), at 1.95 µg/mL, read-out: Activity
[23] = test system: Pichia kudriavzevii; test: Antifungal activity against Candida krusei ATCC 6258 measured after 48 hrs by CLSI M27-A3 protocol based method; type: functional; details: Pichia kudriavzevii, ATCC 6258, 48 h
[24] = Hemolytic activity in mouse RBC at 31.3 ug/ml after 1 hr relative to control; type: ADME, cell-based, Erythrocyte; details: mouse red blood cells (erythrocytes), at 31.3 µg/mL, read-out: Activity
[25] = Hemolytic activity in mouse RBC at 62.5 ug/ml after 1 hr relative to control; type: ADME, cell-based, Erythrocyte; details: mouse red blood cells (erythrocytes), read-out: Activity
[26] = test system: Candida parapsilosis; test: Antifungal activity against Candida parapsilosis isolate CP3 measured after 48 hrs by CLSI M27-A3 protocol based method; type: functional; details: Lodderomyces parapsilosis, isolate CP3, 48 h
[27] = test system: A549; test: Cytotoxicity against human A549 cells at 15.5 ug/ml after 24 hrs by resazurin based assay; type: cell-based; details: a549, 24 h
[28] = test system: Nakaseomyces glabratus; test: Antifungal activity against Candida glabrata ATCC 2001 measured after 48 hrs by CLSI M27-A3 protocol based method; type: functional, CBS 138; details: Nakaseomyces glabratus, CBS 138, 48 h; read-out: MIC
[29] = test system: Nakaseomyces glabratus; test: Antifungal activity against Candida glabrata isolate CG1 measured after 48 hrs by CLSI M27-A3 protocol based method; type: functional; details: Nakaseomyces glabratus, 48 h; read-out: MIC
[30] = test system: Aspergillus nidulans; test: Antifungal activity against Aspergillus nidulans ATCC 38163 measured after 48 hrs by CLSI M38-A2 protocol based method; type: functional; details: ATCC 38163, 48 h
[31] = Hemolytic activity in mouse RBC at […] ug/ml after 1 hr relative to control; type: ADME, cell-based, Erythrocyte; details: mouse red blood cells (erythrocytes), read-out: Activity
[32] = Hemolytic activity in mouse RBC at 0.48 ug/ml after 1 hr relative to control; type: ADME, cell-based, Erythrocyte; details: mouse red blood cells (erythrocytes), read-out: Activity
[33] = Hemolytic activity in mouse RBC at 7.8 ug/ml after 1 hr relative to control; type: ADME, cell-based, Erythrocyte; details: mouse red blood cells (erythrocytes), read-out: Activity
[34] = test system: Aspergillus flavus; test: Antifungal activity against Aspergillus flavus ATCC MYA-3631 measured after 48 hrs by CLSI M38-A2 protocol based method; type: functional; details: ATCC MYA-3631, 48 h
[35] = test system: BEAS-2B; test: Cytotoxicity against human BEAS2B cells at 31 ug/ml after 24 hrs by resazurin based assay; type: cell-based
[36] = test system: Candida albicans; test: Inhibition of Candida albicans ATCC 10231 ERG11 assessed as lanosterol composition of total sterols at 0.48 ug/ml incubated for 10 mins followed by saponification for 2 hrs by GC-MS method relative to control; design: scale not given: the % may be the effect or the level left
[37] = test system: Aspergillus nidulans; test: Ratio of MIC for Aspergillus nidulans ATCC 38163 in presence of 10% FBS to MIC for Aspergillus nidulans ATCC 38163 in absence of 10% FBS; type: functional
[38] = test system: Candida albicans; test: Inhibition of Candida albicans ATCC 10231 ERG11 assessed as eburicol composition of total sterols at 0.48 ug/ml incubated for 10 mins followed by saponification for 2 hrs by GC-MS method relative to control; design: scale not given: the % may be the effect or the level left
[39] = test system: Candida albicans; test: Inhibition of Candida albicans ATCC 10231 ERG11 assessed as 14alphamethyl ergosta-8,24(28)-diene-3beta,6alpha-diol composition of total sterols at 0.48 ug/ml incubated for 10 mins followed by saponification for 2 hrs by GC-MS method relative to control; design: scale not given: the % may be the effect or the level left
[40] = test system: Aspergillus nidulans; test: Antifungal activity against Aspergillus nidulans ATCC 38163 measured after 48 hrs in presence of 10% FBS by CLSI M38-A2 protocol based method; type: functional; details: ATCC 38163, 48 h
[41] = test system: A549; test: Cytotoxicity against human A549 cells up to 7.8 ug/ml after 24 hrs by resazurin based assay; type: cell-based; details: a549, 24 h
[42] = Cytotoxicity against HEK293 cells assessed as cell survival at 3.9 ug/ml after 24 hrs by resazurin based assay relative to control; details: human, read-out: Survival
[43] = test system: Candida albicans; test: Antifungal activity against Candida albicans ATCC 10231 measured after 48 hrs in presence of 10% FBS by CLSI M27-A3 protocol based method; type: functional; details: Candida albicans, ATCC 10231, 48 h
[44] = test system: Candida albicans; test: Inhibition of Candida albicans ATCC 10231 ERG11 assessed as ergosterol composition of total sterols at 0.48 ug/ml incubated for 10 mins followed by saponification for 2 hrs by GC-MS method (reference value: 100%); design: scale not given: the % may be the effect or the level left
[45] = test system: BEAS-2B; test: Cytotoxicity against human BEAS2B cells up to 7.8 ug/ml after 24 hrs by resazurin based assay; type: cell-based
[46] = test system: Candida parapsilosis; test: Antifungal activity against Candida parapsilosis ATCC 22019 measured after 48 hrs in presence of 10% FBS by CLSI M27-A3 protocol based method; type: functional; details: Lodderomyces parapsilosis, ATCC 22019, 48 h
[47] = test system: Candida albicans; test: Ratio of MIC for Candida albicans ATCC 10231 in presence of 10% FBS to MIC for Candida albicans ATCC 10231 in absence of 10% FBS; type: functional

SMILES | MIC [1] [µM] | Activity [3] | MIC [4] [µM] | MIC [5] [µM] | MIC [6] [µM] | MIC [10] [µM] | MIC [11] [µM] | hemolysis at 1 h, 3.9 ug/ml [12] [%] | MIC [13] [µM] | MIC [14] [µM] | MIC [16] [µM] | MIC [17] [µM] | MIC [18] [µM] | MIC [20] [µM] | MIC [21] [µM] | hemolysis at 1 h, 1.95 ug/ml [22] [%] | MIC [23] [µM] | hemolysis at 1 h, 31.3 ug/ml [24] [%] | hemolysis at 1 h, 62.5 ug/ml [25] [%] | MIC [26] [µM] | also measured
CCCCCCCCNCC(O)(Cn1cncn1)c1ccc(F)cc1F (stereo unspecified) | 10.6 (≈ 3.88 µg/mL) | inactive | 42.6 (≈ 15.6 µg/mL) | 10.6 (≈ 3.88 µg/mL) | 0.33 (≈ 0.121 µg/mL) | 0.16 (≈ 0.0586 µg/mL) | 85.4 (≈ 31.3 µg/mL) | 2 | 42.6 (≈ 15.6 µg/mL) | 21.3 (≈ 7.81 µg/mL) | 2.7 (≈ 0.989 µg/mL) | 2.7 (≈ 0.989 µg/mL) | 42.6 (≈ 15.6 µg/mL) | 5.3 (≈ 1.94 µg/mL) | 1.3 (≈ 0.476 µg/mL) | 0 | 2.7 (≈ 0.989 µg/mL) | 9 | 78 | 0.65 (≈ 0.238 µg/mL) | MIC [2]: > 85.4 µM; MIC [7]: 85.4 µM (≈ 31.3 µg/mL); MIC [8]: 85.4 µM (≈ 31.3 µg/mL); Activity [9]: Non-Toxic; Activity [15]: Active; Activity [19]: Active; Activity [27]: Non-Toxic; MIC [28]: 2.7 to 21.3 µM (≈ 0.989 to 7.81 µg/mL); MIC [29]: 21.3 µM (≈ 7.81 µg/mL); MIC [30]: 5.3 µM (≈ 1.94 µg/mL); hemolysis at 1 h, 0.975 ug/ml [31]: 2%; hemolysis at 1 h, 15.6 ug/ml [31]: 3%; hemolysis at 1 h, 0.48 ug/ml [32]: 2%; hemolysis at 1 h, 7.8 ug/ml [33]: 0%; MIC [34]: > 85.4 µM; Activity [35]: Non-Toxic
CCCCCCCCCCCCNCC(O)(Cn1cncn1)c1ccc(F)cc1F (stereo unspecified) | 1.1 (≈ 0.465 µg/mL) | Active | 18.5 (≈ 7.82 µg/mL) | 0.57 (≈ 0.241 µg/mL) | 0.57 (≈ 0.241 µg/mL) | 1.1 (≈ 0.465 µg/mL) | 9.2 (≈ 3.89 µg/mL) | 8 | 9.2 (≈ 3.89 µg/mL) | 4.6 (≈ 1.94 µg/mL) | 2.3 (≈ 0.972 µg/mL) | 2.3 (≈ 0.972 µg/mL) | 4.6 (≈ 1.94 µg/mL) | 0.57 (≈ 0.241 µg/mL) | 0.14 (≈ 0.0592 µg/mL) | 2 | 2.3 (≈ 0.972 µg/mL) | 100 | 98 | 0.28 (≈ 0.118 µg/mL) | Activity [36]: 10%; Ratio [37]: 4; Activity [38]: 0.57%; Activity [39]: 4.69%; MIC [40]: 7.8 µg/mL; Activity [41]: Non-Toxic; viability at 24 h, 3.9 ug/ml [42]: > 50%; MIC [43]: 1.95 µg/mL; Activity [44]: 36.6%; Activity [45]: Non-Toxic; MIC [28]: 2.3 µM (≈ 0.972 µg/mL); MIC [29]: 4.6 µM (≈ 1.94 µg/mL); MIC [46]: 0.24 µg/mL; Ratio [47]: 2; MIC [30]: 4.6 µM (≈ 1.94 µg/mL); hemolysis at 1 h, 0.975 ug/ml [31]: 2%; hemolysis at 1 h, 15.6 ug/ml [31]: 86%; hemolysis at 1 h, 0.48 ug/ml [32]: 2%; hemolysis at 1 h, 7.8 ug/ml [33]: 21%; MIC [34]: 18.5 µM (≈ 7.82 µg/mL)
